Consider 14 molecules from US5225528A, “Cyclic hexapeptide oxytocin antagonists” (priority 1990, dated 1993).

The target of one assay is T1, AVP-V2 sites (Rattus norvegicus, UniProt Q00788).
T1 construct: male rat liver (AVP-V1 sites) or kidney medulla (AVP-V2 sites); from tissue; host or cells: male rat kidney medulla, crude membranes
Put plainly: [^3 H]AVP binding to crude membrane preparation of male rat kidney medulla (AVP-V2 sites). To be noted: for IC50: read-out: Receptor Binding Results IC50 (nM) [^3 H]-AVP-V2; for inhibition at 10 µM: @ 10,000 (nM). Here is the method: (§1) Nonspecific binding (5-10% of the total binding) was determined using 10 μM unlabeled AVP, and the binding reaction was terminated by filtration as described above for the [^3 H]OT binding assay.

For the next assay, the target named is T2, AVP-V1 sites (Rattus norvegicus, UniProt P30560).
T2 construct: crude membrane preparation of male rat liver (AVP-V1 sites); from tissue; host or cells: male rat liver, crude membranes
T2 sequence (P30560 whole entry): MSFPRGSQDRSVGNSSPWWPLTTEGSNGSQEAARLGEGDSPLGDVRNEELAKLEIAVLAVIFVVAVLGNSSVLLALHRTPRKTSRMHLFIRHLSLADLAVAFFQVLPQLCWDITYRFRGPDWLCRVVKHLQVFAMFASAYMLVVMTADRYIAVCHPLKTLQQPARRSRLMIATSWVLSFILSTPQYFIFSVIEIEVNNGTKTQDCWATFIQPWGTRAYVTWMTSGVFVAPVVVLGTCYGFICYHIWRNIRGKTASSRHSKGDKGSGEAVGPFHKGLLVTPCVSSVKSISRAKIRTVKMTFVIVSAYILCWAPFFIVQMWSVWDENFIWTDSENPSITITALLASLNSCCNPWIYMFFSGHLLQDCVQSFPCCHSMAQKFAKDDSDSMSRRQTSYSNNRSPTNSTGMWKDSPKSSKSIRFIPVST
Put plainly: [^3 H]AVP binding to crude membrane preparation of male rat liver (AVP-V1 sites). Here is the method:
as §1

Another assay deals with T3, uterine OT receptors (Rattus norvegicus, UniProt P70536).
T3 construct: from tissue; host or cells: uterus of DES-treated rats, crude membranes
T3 sequence (P70536 1-388): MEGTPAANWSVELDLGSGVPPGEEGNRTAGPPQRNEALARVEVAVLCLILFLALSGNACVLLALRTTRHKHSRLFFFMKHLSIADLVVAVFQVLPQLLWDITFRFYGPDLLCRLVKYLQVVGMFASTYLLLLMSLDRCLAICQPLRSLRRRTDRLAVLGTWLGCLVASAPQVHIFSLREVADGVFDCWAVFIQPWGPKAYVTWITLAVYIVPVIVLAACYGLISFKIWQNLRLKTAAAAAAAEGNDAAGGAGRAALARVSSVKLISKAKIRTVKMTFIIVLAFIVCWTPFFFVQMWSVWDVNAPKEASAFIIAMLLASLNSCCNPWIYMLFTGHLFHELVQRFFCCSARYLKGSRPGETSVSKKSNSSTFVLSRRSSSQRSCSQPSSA
Put plainly: [^3 H]OT binding to uterine OT receptors, crude membrane preparation of uteri from DES-treated rats. The conditions noted are these: for inhibition at 1 µM: @ 1,000 (nM); for IC50: rat uterus membranes, 1 nM [^3 H]OT, read-out: Receptor Binding Results IC50 (nM) [^3 H]OT. Here is the method:
Competition studies were conducted at equilibrium (60 minutes; 22° C.) using 1 nM [^3 H]OT in the following assay buffer: 50 mM Tris-HCl, 5 mM MgCl2, and 0.1% BSA, pH 7.4.

Setting [1] is: rat kidney medulla membranes, 2 nM [^3 H]AVP.
The mark [2] stands for this setting: Receptor Binding Results IC50 (nM) [^3 H]-AVP-V1.
Setting [3] is: 1 h, read-out: [^3 H]OT: percent inhibition of radioligand at the given concentration.
[4] abbreviates: read-out: Receptor Binding Results IC50 (nM) [^3 H]-AVP-V1.
Where [5] appears, read: 0.5 h, read-out: [^3 H]-AVP-V2: percent inhibition of radioligand at the given concentration.

SMILES strings stand for the structures. Where two headings read alike, the source gives them in different places. Numbered stars: 1 amine (or outer) side, 2 acyl side, 3 side chain; on linkers, the order of the positions; unused ones are H or OH. Square brackets hold non-standard residues; d marks the D form. Peptide text beside a SMILES is read from it. * marks the point of attachment. X2 = O=C(OCc1ccccc1)N1CCN([*:1])[C@H](C(=O)[*:2])C1; X5 = CC(C)(C)OC(=O)CN1CCN([*:1])[C@H](C(=O)[*:2])C1; X4 = O=C([C@@H](Cc1cn(COCc2ccccc2)cn1)N[*:1])[*:2]; X10 = O=C(O)CN1CCN([*:1])[C@H](C(=O)[*:2])C1; dPiz(1,6-dehydro) = O=C(O)[C@H]1CCC=NN1; d2Nal = N[C@H](Cc1ccc2ccccc2c1)C(=O)O; Pip(4-aza) = O=C(O)[C@@H]1CNCCN1; dNMeF = CN[C@H](Cc1ccccc1)C(=O)O; Pip = O=C(O)[C@@H]1CCCCN1; dPip = O=C(O)[C@H]1CCCCN1; dNMeA = CN[C@H](C)C(=O)O; Boc = CC(C)(C)OC(=O)*; OtBu = CC(C)(C)O* Where only a bound is given, the exact number is not on record here.

T1 sequence (Q00788 whole entry): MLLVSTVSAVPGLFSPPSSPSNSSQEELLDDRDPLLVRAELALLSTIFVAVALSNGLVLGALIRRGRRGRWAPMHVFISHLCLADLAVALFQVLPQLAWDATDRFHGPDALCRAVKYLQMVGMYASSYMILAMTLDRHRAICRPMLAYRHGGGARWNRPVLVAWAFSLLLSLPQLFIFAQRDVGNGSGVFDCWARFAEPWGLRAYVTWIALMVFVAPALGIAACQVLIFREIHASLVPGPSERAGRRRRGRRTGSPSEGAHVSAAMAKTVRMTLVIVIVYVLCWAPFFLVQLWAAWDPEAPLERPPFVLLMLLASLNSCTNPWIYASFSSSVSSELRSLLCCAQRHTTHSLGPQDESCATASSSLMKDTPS

On to `CC[C@H](C)[C@@H]1NC(=O)[C@@H](C)N(C)C(=O)[C@@H]2CCCN2C(=O)[C@@H](Cc2ccccc2)N(C)C(=O)[C@@H]2CCCCN2C(=O)[C@H]2CCCCN2C1=O` [Example 167, c-[N-Me-D-Alanyl-L-isoleucyl-D-pipecolyl-L-pipecolyl-N-Me-D-phenylalanyl-L-prolyl]] (cyclo(I[dPip][Pip][dNMeF]P[dNMeA])), for which the IC50 at AVP-V2 sites (setting [1]) and on AVP-V1 sites (setting [2]) was greater than 10000 nM in each case. In addition, the inhibition at 1 µM on uterine OT receptors (setting [3]) is 5%.
As for `CC[C@H](C)[C@@H]1NC(=O)[C@@H](Cc2c[nH]c3ccccc23)NC(=O)[C@@H]2CCCN2C(=O)[C@@H](Cc2ccccc2)N(C)C(=O)[C@@H]2CN(C(=O)OCc3ccccc3)CCN2C(=O)[C@H]2CCC=NN2C1=O` [Example 168, c-[D-Tryptophanyl-L-isoleucinyl-D-Δ-piperazyl-L-piperazin-2-yl(4-Cbz)-N-Me-D-phenylalanyl-L-prolyl]] (cyclo(I[dPiz(1,6-dehydro)][X2][dNMeF]P[dW])), the inhibition at 1 µM on AVP-V2 sites (0.5 h, @ 1,000 (nM), read-out: [^3 H]-AVP-V2: percent inhibition of radioligand at the given concentration) is 54%. Further, the IC50 is 10000 nM on AVP-V1 sites (setting [2]) and 34 nM on uterine OT receptors.
In the case of `CC[C@H](C)[C@@H]1NC(=O)[C@@H](Cc2ccc3ccccc3c2)NC(=O)[C@@H]2CCCN2C(=O)[C@@H](Cc2ccccc2)N(C)C(=O)[C@@H]2CN(C(=O)OCc3ccccc3)CCN2C(=O)[C@H]2CCCCN2C1=O` [Example 169, c-[D-2-Naphthylalanyl-L-isoleucinyl-D-pipecolyl-L-piperazin-2-yl(4-Cbz)-D-(Nα-methyl)-phenylalanyl-L-prolyl]] (cyclo(I[dPip][X2][dNMeF]P[d2Nal])), the IC50 at AVP-V2 sites (setting [1]) is 10000 nM; on AVP-V1 sites (setting [2]), greater than 10000 nM. Moreover, at uterine OT receptors (1 h, @ 10 (nM), read-out: [^3 H]OT: percent inhibition of radioligand at the given concentration), the inhibition at 0.01 µM came out at 74%.
Take `CC[C@H](C)[C@@H]1NC(=O)[C@@H](Cc2c[nH]c3ccccc23)NC(=O)[C@@H]2CCCN2C(=O)[C@@H](Cc2ccccc2)N(C)C(=O)[C@@H]2CNCCN2C(=O)[C@H]2CCC=NN2C1=O` [Example 170, c-[D-Tryptophanyl-L-isoleucinyl-D-Δ-piperazyl-L-piperazin-2-yl-N^α -Me-D-phenylalanyl-L-prolyl]] (cyclo(I[dPiz(1,6-dehydro)][Pip(4-aza)][dNMeF]P[dW])): the results for the IC50 at AVP-V2 sites, on AVP-V1 sites (setting [4]) and on uterine OT receptors were 175 nM, 6850 nM and 3.1 nM, respectively.
As to `CC[C@H](C)[C@@H]1NC(=O)[C@@H](Cc2ccc3ccccc3c2)NC(=O)[C@@H]2CCCN2C(=O)[C@@H](Cc2ccccc2)N(C)C(=O)[C@@H]2CNCCN2C(=O)[C@H]2CCCCN2C1=O` [Example 171, c-[D-2-Naphthylalanyl-L-isoleucinyl-D-pipecolyl-L-piperazin-2-yl-D-(N^α -methyl)phenylalanyl-L-prolyl]] (cyclo(I[dPip][Pip(4-aza)][dNMeF]P[d2Nal])), the results for the half-maximal inhibitory concentration (IC50) on AVP-V2 sites, on AVP-V1 sites (setting [4]) and at uterine OT receptors were 335 nM, 15000 nM and 3.9 nM, respectively.
Take `CC[C@H](C)[C@@H]1NC(=O)[C@@H](Cc2c[nH]c3ccccc23)NC(=O)[C@@H]2CCCN2C(=O)[C@@H](CC(=O)OC(C)(C)C)NC(=O)[C@@H]2CCCCN2C(=O)[C@H]2CCCCN2C1=O` [Example 172, c-[D-Tryptophanyl-L-isoleucinyl-D-pipecolyl-L-pipecolyl-D-(β-t-butyl)aspartyl-L-prolyl]] (cyclo(I[dPip][Pip][dD](OtBu)P[dW])): the half-maximal inhibitory concentration (IC50) at AVP-V2 sites (setting [1]) and at AVP-V1 sites (setting [2]) was greater than 10000 nM each time. Moreover, the inhibition at 0.1 µM on uterine OT receptors (1 h, @ 100 (nM), read-out: [^3 H]OT: percent inhibition of radioligand at the given concentration) was found to be 20%.
On to `CC[C@H](C)[C@@H]1NC(=O)[C@@H](Cc2ccccc2)NC(=O)[C@@H]2CCCN2C(=O)[C@@H](Cc2ccccc2)N(C)C(=O)[C@H](CCCCNC(=O)OC(C)(C)C)NC(=O)[C@H]2CCC=NN2C1=O` [Example 173, C-[D-Phenylalanyl-L-isoleucyl-D-Δ-piperazyl-L-(N^ε -t-Butyloxycarbonyl)-Lysl-M-Me-D-phenylalanyl-L-prolyl]] (cyclo(I[dPiz(1,6-dehydro)]K(Boc)[dNMeF]P[dF])), for which the IC50 on AVP-V2 sites was 2800 nM; on AVP-V1 sites (setting [4]) it was 1500 nM; at uterine OT receptors it was 71 nM.
For the molecule `CC[C@H](C)[C@@H]1NC(=O)[C@@H](Cc2ccccc2)NC(=O)[C@@H]2CCCN2C(=O)[C@@H](Cc2ccccc2)N(C)C(=O)[C@H](CCCCN)NC(=O)[C@H]2CCC=NN2C1=O` [Example 174, c-[D-Phenylalanyl-L-isoleucyl-D-Δ-piperazyl-L-Lysyl-N-Me-D-phenylalanyl-L-prolyl]] (cyclo(I[dPiz(1,6-dehydro)]K[dNMeF]P[dF])), the IC50 on AVP-V2 sites is 570 nM; at AVP-V1 sites (setting [4]), 610 nM; at uterine OT receptors, 21 nM.
For `CC[C@H](C)[C@@H]1NC(=O)[C@@H](Cc2ccccc2)NC(=O)[C@@H]2CCCN2C(=O)[C@@H](Cc2cn(COCc3ccccc3)cn2)NC(=O)[C@@H]2CNCCN2C(=O)[C@H]2CCCCN2C1=O` [Example 176, c-[D-Phenylalanyl-L-isoleucinyl-D-pipecolyl-L-piperazin-2-yl-D-histidinyl(BOM)-L-prolyl]] (cyclo([dF]I[dPip][Pip(4-aza)][X4]P)), on AVP-V2 sites (setting [5]), the inhibition at 10 µM was 81%. The molecule further yielded an IC50 at AVP-V1 sites (setting [2]) of 10000 nM. The inhibition at 1 µM on uterine OT receptors (setting [3]) stood at 80%.
As for `CC[C@H](C)[C@@H]1NC(=O)[C@@H](Cc2c[nH]c3ccccc23)NC(=O)[C@@H]2CCCN2C(=O)[C@@H](Cc2cn(COCc3ccccc3)cn2)NC(=O)[C@@H]2CNCCN2C(=O)[C@H]2CCCCN2C1=O` [Example 177, c-[D-Tryptophanyl-L-isoleucinyl-D-pipecolyl-L-piperazin-2-yl-D-histidinyl(BOM)-L-prolyl]] (cyclo([dW]I[dPip][Pip(4-aza)][X4]P)), the results for the half-maximal inhibitory concentration (IC50) on AVP-V2 sites, at AVP-V1 sites (setting [4]) and at uterine OT receptors were 12000 nM, 16000 nM and 76 nM, respectively.
As for `CC[C@H](C)[C@@H]1NC(=O)[C@@H](Cc2ccccc2)NC(=O)[C@@H]2CCCN2C(=O)[C@@H](CC(=O)OC(C)(C)C)NC(=O)[C@@H]2CCCCN2C(=O)[C@H]2CCCCN2C1=O` [Example 179, c-[D-Phenylalanyl-L-isoleucinyl-D-pipecolyl-L-pipecolyl-D-(β-t-butyl)aspartyl-L-prolyl]] (cyclo(I[dPip][Pip][dD](OtBu)P[dF])), the IC50 on AVP-V2 sites (setting [1]) and on AVP-V1 sites (setting [2]) was greater than 10000 nM in each case. Also, the inhibition at 1 µM at uterine OT receptors (setting [3]) was determined as 63%.
As for `CC[C@H](C)[C@@H]1NC(=O)[C@@H](Cc2c[nH]c3ccccc23)NC(=O)[C@@H]2CCCN2C(=O)[C@@H](Cc2ccccc2)N(C)C(=O)[C@@H]2CN(CC(=O)OC(C)(C)C)CCN2C(=O)[C@H]2CCCCN2C1=O` [Example 180, C-[D-Tryptophanyl-L-isoleucinyl-D-pipecolyl-L-piperazin-2-yl (4-t-butylacetyl)-D-(N^α -Me)phenylalanyl-L-prolyl]] (cyclo([dW]I[dPip][X5][dNMeF]P)), at AVP-V2 sites (setting [5]), the inhibition at 10 µM is 79%. The “[^3 H]-AVP-V1: percent inhibition of radioligand at the given concentration” value at AVP-V1 sites (@ 10,000 (nM)) is reported as 44%. For the same molecule, the IC50 on uterine OT receptors was determined as 150 nM.
With `CC[C@H](C)[C@@H]1NC(=O)[C@@H](Cc2c[nH]c3ccccc23)NC(=O)[C@@H]2CCCN2C(=O)[C@@H](Cc2ccccc2)N(C)C(=O)[C@@H]2CN(CC(=O)O)CCN2C(=O)[C@H]2CCCCN2C1=O` [Example 181, c-[D-Tryptophanyl-L-isoleucinyl-D-pipecolyl-L-piperazin-2-yl(4-carboxymethyl)-D-(N^α -Me)phenylalanyl-L-prolyl]] (cyclo(I[dPip][X10][dNMeF]P[dW])), the inhibition at 10 µM at AVP-V2 sites (setting [5]) came to 73%. Moreover, the figures for the IC50 on AVP-V1 sites (setting [2]) and at uterine OT receptors were greater than 10000 nM and 100 nM, respectively.
With `CC[C@H](C)[C@@H]1NC(=O)[C@@H](Cc2cn(CC(=O)OC(C)(C)C)c3ccccc23)NC(=O)[C@@H]2CCCN2C(=O)[C@@H](Cc2ccccc2)N(C)C(=O)[C@@H]2CN(CC(=O)OC(C)(C)C)CCN2C(=O)[C@H]2CCCCN2C1=O` [Example 182, c-[D-Tryptophanyl(t-butylacetyl)-L-isoleucinyl-D-pipecolyl-L-piperazin-2-yl(4-t-butylacetyl)-D-(N^α -Me)phenylalanyl-L-prolyl]], the IC50 on AVP-V2 sites (setting [1]) and at AVP-V1 sites (setting [2]) was greater than 10000 nM in each case. Also, at uterine OT receptors (setting [3]), the inhibition at 1 µM was determined as 56%.

As usually defined, the IC50 is the concentration needed to halve the response being measured.
